For assay [1], the system named is Mycobacterium tuberculosis. Description: Binding affinity to Mycobacterium tuberculosis RpsA C-terminal domain (285 to 476 residues) assessed as quenching rate constant by fluorescence quenching titration based analysis.
Assay [2] in a line: Binding affinity to Mycobacterium tuberculosis RpsA C-terminal domain (285 to 476 residues) assessed as dissociation constant by fluorescence quenching titration based analysis.
In assay [3] the test system is Mycobacterium tuberculosis. Description: Binding affinity to Mycobacterium tuberculosis RpsA C-terminal domain (285 to 476 residues) at 500 uM by STD based analysis.
For assay [4], the system named is Mycobacterium tuberculosis. Description: Binding affinity to Mycobacterium tuberculosis 15N-labelled wild type RpsA (280 to 438 residues) by chemical shift perturbation based 15N-1H HSQC spectral analysis.

Calls of active or inactive are those of the source. The calls are words filed in the database; no cut-off is given here.

The term Kd denotes the concentration at which binding is half-saturated.

Consider `O=C(O)c1cnccn1` [PYRAZINOIC ACID], for which the Kq in assay [1] is 8.22 10^11/M/s. Besides, the Kd in assay [2] worked out at 9.65 µM.

In the case of `CC(Sc1nc(N)cc(N)n1)C(=O)O` (configuration not stated), in assay [2], the dissociation constant (Kd) was determined as 2.67 µM.

For `Cc1ccc(CNC(=O)COc2cc(O)c3c(=O)cc(-c4ccccc4)oc3c2)cc1`, the Kq in assay [1] is 6.45 10^12/M/s. The outcome in assay [3] and in assay [4] was Active. Further, the Kd in assay [2] came to 3.24 µM.

Take `Cc1cccc(CNC(=O)CSc2nc3nc[nH]c3c(=O)[nH]2)c1`: the Kq in assay [1] was 3.75 10^12/M/s. In addition, the result in assay [3] and in assay [4] was Active. In assay [2], the dissociation constant (Kd) was 2.67 µM.

Take `O=C(O)CSc1nc2nc[nH]c2c(=O)[nH]1`: the Kq in assay [1] was 1.79 10^12/M/s. Besides, the result in assay [3] and in assay [4] was Active. In addition, the Kd in assay [2] came out at 6.35 µM.

For `CCOC(=O)CSc1nc2nc[nH]c2c(=O)[nH]1`, in assay [1], the Kq is 3.37 10^12/M/s. Moreover, the result in assay [3] and in assay [4] was Active. In addition, the Kd in assay [2] turned out to be 0.81 µM.

Consider `Cc1cccc(CNC(=O)COc2cc(O)c3c(=O)cc(-c4ccccc4)oc3c2)c1`, for which the Kq in assay [1] is 1.94 10^12/M/s. Further, the outcome in assay [3] and in assay [4] was Active. In addition, the Kd in assay [2] was determined as 5.66 µM.

With `Cc1ccc(CNC(=O)CSc2nc3nc[nH]c3c(=O)[nH]2)cc1`, the Kq in assay [1] was 4.09 10^12/M/s. The result in assay [3] and in assay [4] was Active. Besides, in assay [2], the equilibrium dissociation constant (Kd) is 7.61 µM.

(Values after ChEMBL document CHEMBL4765294, “Discovery and evaluation of new compounds targeting ribosomal protein S1 in antibiotic-resistant Mycobacterium Tuberculosis” (Eur J Med Chem, 2020).)
